# Assay results published in patent US20260078119A1, “DEGRADER COMPOUNDS AND USES THEREOF” (Bristol-Myers Squibb Company, priority 2024, published 2026).
# Where two headings read alike, the source gives them in different places.
# How the values were obtained:
# [1] = target: T1, FAK (Homo sapiens, UniProt Q05397); test: FAK-HiBiT Degradation Assay; format: cell-based; settings: for DC50: read-out: FAK HiBiT EC50; for FAK HiBiT Ymin: lower limit of the four parameter fit (value A), Ymax derived using DMSO control, JHH-4-FAK-HiBiT cells, two hours
# T1 construct: homozygous knock-in of a HiBiT tag (Promega Corporation, Madison, WI) to the C-terminus of the FAK gene in its natural genomic locus; endogenous in cells; host or cells: JHH-4-FAK-HiBiT clone d01 (CRISPR-Cas9 knock-in at the endogenous locus)
# T1 sequence (Q05397 whole entry): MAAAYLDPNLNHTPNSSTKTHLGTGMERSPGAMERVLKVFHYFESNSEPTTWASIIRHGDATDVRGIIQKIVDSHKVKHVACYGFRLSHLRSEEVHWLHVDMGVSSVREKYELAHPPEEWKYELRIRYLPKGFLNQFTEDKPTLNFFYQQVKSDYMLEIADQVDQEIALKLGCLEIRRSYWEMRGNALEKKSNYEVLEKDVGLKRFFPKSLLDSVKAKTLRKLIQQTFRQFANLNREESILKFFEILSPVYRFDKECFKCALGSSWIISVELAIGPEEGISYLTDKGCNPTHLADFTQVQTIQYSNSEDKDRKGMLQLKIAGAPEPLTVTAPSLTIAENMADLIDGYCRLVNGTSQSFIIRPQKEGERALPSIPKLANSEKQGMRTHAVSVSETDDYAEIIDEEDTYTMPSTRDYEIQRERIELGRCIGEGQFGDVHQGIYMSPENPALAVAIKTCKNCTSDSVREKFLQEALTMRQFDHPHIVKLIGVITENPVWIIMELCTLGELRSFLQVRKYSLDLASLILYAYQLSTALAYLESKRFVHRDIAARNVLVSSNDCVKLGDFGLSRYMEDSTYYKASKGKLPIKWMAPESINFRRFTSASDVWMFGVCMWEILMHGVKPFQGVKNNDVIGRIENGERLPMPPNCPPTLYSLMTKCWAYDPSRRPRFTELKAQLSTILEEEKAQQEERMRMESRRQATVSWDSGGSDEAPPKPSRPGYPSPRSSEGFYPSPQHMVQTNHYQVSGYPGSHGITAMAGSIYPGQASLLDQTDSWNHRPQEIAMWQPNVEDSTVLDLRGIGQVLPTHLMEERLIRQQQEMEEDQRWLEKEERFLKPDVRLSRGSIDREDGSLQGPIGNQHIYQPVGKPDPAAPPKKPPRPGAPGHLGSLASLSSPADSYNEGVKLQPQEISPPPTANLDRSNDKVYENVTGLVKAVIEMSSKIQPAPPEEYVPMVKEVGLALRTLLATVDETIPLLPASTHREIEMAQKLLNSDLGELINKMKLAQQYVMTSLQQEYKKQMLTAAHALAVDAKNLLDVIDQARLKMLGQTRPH
# In short: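 JHH-4 cells with homozygous CRISPR knock-in of C-terminal HiBiT on endogenous FAK, treated 2 h at 37 °C with compounds in 10-point 3-fold series from 1 μM. HiBiT lytic luminescence read; EC50 from four-parameter logistic fit, Ymax set by DMSO control, Ymin as lower fit limit.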
# [2] = test system: CAL-51 cells; test: CAL-51 Cell Proliferation Assay; format: cell-based; settings: for EC50: 120 hours incubation, 10-point dose response, 4-fold dilutions starting at 10 μM, Cell-Titer-Glo, read-out: CAL-51 Prolif EC50; for CAL-51 Prolif Ymin: minimal percent of DMSO control observed in the concentrations tested (Ymin-obs), 120 hours
# In short: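 Cells seeded at 350/well in RPMI complete medium onto 10-point, 4-fold compound dilutions from 10 μM (0.1% DMSO), in duplicate, and grown 120 h at 37 °C. CellTiter-Glo luminescence, blank-subtracted and normalised to DMSO, was fitted with a four-parameter logistic to give EC50; Ymin-obs is the lowest observed percent of DMSO control.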
# [3] = JHH-4-FAK-HiBiT clone d01 cells, two hours incubation, 10-point dose response, 3-fold dilution starting at 1 μM, Nano-Glo HiBiT luminescence
Structure (SMILES),"DC50 [1, 3]",FAK HiBiT Ymin [1],EC50 ([2]; Homo sapiens),CAL-51 Prolif Ymin [2],"EC50 [1, 3]",EC50 [2]
"CCOc1ccc(-c2cc(N3CC(F)C3)nc3c2cnn3Cc2ccc3c(c2)CN([C@H]2CCC(=O)NC2=O)C3=O)c(C)c1 [Example 39, (3S)-3-(5-{[4-(4-ethoxy-2-methylphenyl)-6-(3-fluoroazetidin-1-yl)-1H-pyrazolo[3,4-b]pyridin-1-yl]methyl}-1-oxo-2,3-dihydro-1H-isoindol-2-yl)piperidine-2,6-dione]",1.12 nM,7.78,0.82 nM,28.13,,
"CN(c1cc(-c2ncc(C(F)(F)F)cc2Cl)c2cnn(Cc3ccc4c(c3)CN([C@H]3CCC(=O)NC3=O)C4=O)c2n1)C1CC(O)C1 (stereo partly drawn) [Example 64, (3S)-3-[5-({4-[3-chloro-5-(trifluoromethyl)pyridin-2-yl]-6-{methyl[(1s,3s)-3-hydroxycyclobutyl]amino}-1H-pyrazolo[3,4-b]pyridin-1-yl}methyl)-1-oxo-2,3-dihydro-1H-isoindol-2-yl]piperidine-2,6-dione]",,9.77,,32.02,4.29 nM,2.32 nM
"CN(c1cc(-c2ncc(F)cc2Cl)c2cnn(Cc3ccc4c(c3)CN(C3CCC(=O)NC3=O)C4=O)c2n1)C(F)(F)F (centres unmarked) [Example 53, 3-(5-{[4-(3-chloro-5-fluoropyridin-2-yl)-6-[methyl (trifluoromethyl)amino]-1H-pyrazolo[3,4-b]pyridin-1-yl]methyl}-1-oxo-2,3-dihydro-1H-isoindol-2-yl)piperidine-2,6-dione]",2.45 nM,7.24,9.88 nM,39.88,,
"O=C1CC[C@H](N2Cc3cc(Cn4ncc5c(-c6ccc(OCC(F)(F)F)cc6Cl)cc(N6CC(F)C6)nc54)ccc3C2=O)C(=O)N1 [Example 52, (3S)-3-[5-({4-[2-chloro-4-(2,2,2-trifluoroethoxy)phenyl]-6-(3-fluoroazetidin-1-yl)-1H-pyrazolo[3,4-b]pyridin-1-yl}methyl)-1-oxo-2,3-dihydro-1H-isoindol-2-yl]piperidine-2,6-dione]",2.4 nM,8.38,1.13 nM,22.49,,
"O=C1CCC(N2Cc3cc(Cn4ncc5c(-c6ncc(F)cc6Cl)c(F)c(N6CC(F)C6)nc54)ccc3C2=O)C(=O)N1 (centres unmarked) [Example 31, 3-(5-{[4-(3-chloro-5-fluoropyridin-2-yl)-5-fluoro-6-(3-fluoroazetidin-1-yl)-1H-pyrazolo[3,4-b]pyridin-1-yl]methyl}-1-oxo-2,3-dihydro-1H-isoindol-2-yl)piperidine-2,6-dione]",0.76 nM,8.92,3.89 nM,34.80,,
"O=C1CCC(N2Cc3cc(Cn4ccc5c(-c6ncc(C(F)(F)F)cc6Cl)cc(N6CC(F)C6)nc54)ccc3C2=O)C(=O)N1 (centres unmarked) [Example 15, 3-(5-((4-(3-chloro-5-(trifluoromethyl)pyridin-2-yl)-6-(3-fluoroazetidin-1-yl)-1H-pyrrolo[2,3-b]pyridin-1-yl)methyl)-1-oxoisoindolin-2-yl)piperidine-2,6-dione]",0.95 nM,7.50,0.89 nM,29.00,,
"O=C1CCC(N2Cc3cc(Cn4ncc5c(-c6ncc(C(F)(F)F)cc6Cl)cc(N6CCCC6)nc54)ccc3C2=O)C(=O)N1 (centres unmarked) [Example 11, 3-[5-({4-[3-chloro-5-(trifluoromethyl)pyridin-2-yl]-6-(pyrrolidin-1-yl)-1H-pyrazolo[3,4-b]pyridin-1-yl}methyl)-1-oxo-2,3-dihydro-1H-isoindol-2-yl]piperidine-2,6-dione]",0.64 nM,6.28,0.34 nM,22.89,,
"O=C1CCC(N2Cc3cc(Cn4ncc5c(-c6ncc(C(F)F)cc6Cl)cc(N6CC(F)C6)nc54)ccc3C2=O)C(=O)N1 (centres unmarked) [Example 43, 3-[5-({4-[3-chloro-5-(difluoromethyl)pyridin-2-yl]-6-(3-fluoroazetidin-1-yl)-1H-pyrazolo[3,4-b]pyridin-1-yl}methyl)-1-oxo-2,3-dihydro-1H-isoindol-2-yl]piperidine-2,6-dione]",1.59 nM,6.11,155 nM,51.95,,
"O=C1CC[C@H](N2Cc3cc(Cn4ncc5c(-c6ncc(OC(F)(F)F)cc6Cl)cc(N6CC(F)C6)nc54)ccc3C2=O)C(=O)N1 [Example 7, (S)-3-(5-((4-(3-chloro-5-(trifluoromethoxy)pyridin-2-yl)-6-(3-fluoroazetidin-1-yl)-1H-pyrazolo[3,4-b]pyridin-1-yl)methyl)-1-oxoisoindolin-2-yl)piperidine-2,6-dione]",0.57 nM,8.83,0.36 nM,21.87,,
"O=C1CCC(N2Cc3cc(Cn4ncc5c(-c6ncc(C(F)(F)F)cc6Cl)cc(N6CC(F)C6)cc54)ccc3C2=O)C(=O)N1 (centres unmarked) [Example 26, 3-(5-((4-(3-chloro-5-(trifluoromethyl)pyridin-2-yl)-6-(3-fluoroazetidin-1-yl)-1H-indazol-1-yl)methyl)-1-oxoisoindolin-2-yl)piperidine-2,6-dione]",8.5 nM,11.53,2.32 nM,24.69,,

# Second part, led by results:
"DC50 [1, 3]",FAK HiBiT Ymin [1],Structure (SMILES),EC50 ([2]; Homo sapiens),CAL-51 Prolif Ymin [2],"EC50 [1, 3]",EC50 [2]
2.47 nM,6.69,"CC(C)Oc1cnc(-c2cc(N3CC(F)C3)nc3c2cnn3Cc2ccc3c(c2)CN([C@H]2CCC(=O)NC2=O)C3=O)c(Cl)c1 [Example 54, (3S)-3-[5-({4-[3-chloro-5-(propan-2-yloxy)pyridin-2-yl]-6-(3-fluoroazetidin-1-yl)-1H-pyrazolo[3,4-b]pyridin-1-yl}methyl)-1-oxo-2,3-dihydro-1H-isoindol-2-yl]piperidine-2,6-dione]",0.73 nM,25.81,,
15.5 nM,16.43,"O=C1CCC(N2Cc3cc(Cn4ncc5c(-c6ncccc6Br)cc(N6CC(F)C6)nc54)ccc3C2=O)C(=O)N1 (centres unmarked) [Example 93, 3-(5-{[4-(3-bromopyridin-2-yl)-6-(3-fluoroazetidin-1-yl)-1H-pyrazolo[3,4-b]pyridin-1-yl]methyl}-1-oxo-2,3-dihydro-1H-isoindol-2-yl)piperidine-2,6-dione]",9.36 nM,36.26,,
9.57 nM,12.82,"CN(c1cc(-c2ncc(C(F)(F)F)cc2Cl)c2cnn(Cc3ccc4c(c3)CN([C@H]3CCC(=O)NC3=O)C4=O)c2n1)[C@H]1C[C@H](O)C1 [Example 81, (3S)-3-[5-({4-[3-chloro-5-(trifluoromethyl)pyridin-2-yl]-6-{methyl[(1r,3r)-3-hydroxycyclobutyl]amino}-1H-pyrazolo[3,4-b]pyridin-1-yl}methyl)-1-oxo-2,3-dihydro-1H-isoindol-2-yl]piperidine-2,6-dione]",6.37 nM,38.16,,
10.1 nM,11.17,"Cc1cc(F)cnc1-c1cc(N2CC(F)C2)nc2c1cnn2Cc1ccc2c(c1)CN([C@H]1CCC(=O)NC1=O)C2=O [Example 144, (S)-3-(5-((4-(5-fluoro-3-methylpyridin-2-yl)-6-(3-fluoroazetidin-1-yl)-1H-pyrazolo[3,4-b]pyridin-1-yl)methyl)-1-oxoisoindolin-2-yl)piperidine-2,6-dione]",7.14 nM,35.43,,
13 nM,5.32,"O=C1CC[C@@H](N2Cc3cc(Cn4ncc5c(-c6ncc(C(F)(F)F)cc6Cl)cc(N6CC(F)C6)nc54)ccc3C2=O)C(=O)N1 (single isomer, unassigned) [Example 87]",2.17 nM,38.15,,
≥ 1000 nM,95.34,"O=C1CCC(N2Cc3cc(Cn4ncc5c(-c6nnccc6C(F)(F)F)cc(N6CC(F)C6)nc54)ccc3C2=O)C(=O)N1 (centres unmarked) [Example 129, 3-(5-{[6-(3-fluoroazetidin-1-yl)-4-[4-(trifluoromethyl)pyridazin-3-yl]-1H-pyrazolo[3,4-b]pyridin-1-yl]methyl}-1-oxo-2,3-dihydro-1H-isoindol-2-yl)piperidine-2,6-dione]",499 nM,92.49,,
3.11 nM,9.35,"C[C@]1(O)CCN(c2nc3c(cnn3Cc3ccc4c(c3)CN([C@H]3CCC(=O)NC3=O)C4=O)c(-c3ncc(C(F)(F)F)cc3Cl)c2F)C1 [Example 140, (3S)-3-[5-({4-[3-chloro-5-(trifluoromethyl)pyridin-2-yl]-5-fluoro-6-[(3S)-3-hydroxy-3-methylpyrrolidin-1-yl]-1H-pyrazolo[3,4-b]pyridin-1-yl}methyl)-1-oxo-2,3-dihydro-1H-isoindol-2-yl]piperidine-2,6-dione]",2.2 nM,29.76,,
